Experimental findings from paper PMC11973282, “RAS70 peptide targets multiforme glioblastoma by binding to the plasma membrane heat shock protein HSP70” (Frontiers in Oncology, 2025) are described below.

Data set [1] deals with GL261 cells (lower chamber; HUVEC and astrocytes barrier).
Experimental: (§1) Then, a peptide labeled with a fluorescent label was introduced into the upper chamber and co-incubation was carried out for 12, 24 and 36 hours. At the end of the incubation, the tumor cells were washed with cold phosphate-buffered saline (PBS) and fixed with a 4% solution of paraformaldehyde in PBS. Nuclei were stained with 4’,6-diamidino-2-phenylindole (DAPI). Fluorescent images were obtained using a Leica TCS SP8 confocal microscope (Leica, Germany). To avoid possible cross-interference of different fluorochromes, images for DAPI and FITC were obtained using a sequential sample scanning method. Fluorescently labeled cells were counted in the lower chamber. To estimate the mHsp70-mediated uptake of chaperone-targeted peptides tumor cells prior to incubation were pre-treated with anti-Hsp70 monoclonal antibodies SPA-810 (1:250, Stressgen) and SPA-815 (1:250 Stressgen). To exclude integrin (αvβ3, αvβ5)-mediated penetration of RAS70 tumor cells prior to incubation with peptides were pre-treated with anti- αvβ3 (1:200 clone LM609, ZMS1030, Sigma-Aldrich, USA), -αvβ5 (1:200 clone P1F6, MAB1961Z, Sigma-Aldrich, USA) monoclonal antibodies.
(§2) Then, a peptide labeled with a fluorescent dye (FITC) was introduced into the upper chamber and co-incubation was carried out for 12, 24 and 36 hours. At the end of the incubation, the tumor cells were washed with cold phosphate-buffered saline (PBS) and fixed with a 4% solution of paraformaldehyde in PBS. Nuclei were stained with 4’,6-diamidino-2-phenylindole (DAPI).
(§3) Data from 3 independent experiments are presented as M ± SE. […] Data from 3 independent experiments are presented as M ± SE. ** p < 0.01 for testing mean expression levels.
In data set [2] the test system is C6 cells (lower chamber; HUVEC and astrocytes barrier).
Experimental: as §1, §2, §3
The test system of a further data set is GL261 glioma. Further details: species or system C57BL/6 mice. The following applies: mouse, in vivo. Here is the method:
The animals were anesthetized with a combination of Zoletil 100 (Virbac, France) and Rometar (Bioveta, Czech Republic). Rat glioma C6 (2х10^6) and mice glioma GL261 (1х10^6) cells were injected intracranially into the area of nucl. caudatus dexter.
For evaluation of the tumor retention of the RAS70 peptide in GL261 glioma-bearing mice the animals following tumor cells injection were randomly assigned to the study groups (6 animals each) as follows (1): control group – PBS i.v. injection via tail vein (100 μL) (2); i.v. administration of […] peptide (100 μl, 2.5 mg/kg) (3); i.v. administration of NGL-RGD-sCy7.5 peptide (100 μl, 2.5 mg/kg) (4); i.v. administration of TKD-sCy7.5 peptide (100 μl, 2.5 mg/kg) (5); i.v. administration of […] peptide (100 μl, 2.5 mg/kg). Following clinical manifestation of the brain tumor progression in animals (3–4 weeks after intracranial tumor cells injection) peptides were i.v. injected and the peptides biodistribution was assessed employing IVIS in vivo Imaging System (PerkinElmer, USA). […]
Processing of the obtained luminescence images was performed using Living Image 4.7.4 firmware. The luminescence signals were read from the color maps of the obtained images by selecting the ROI contour (region of interest). […]

For data set [3], the system named is C6, GL261, T98G mHsp70-positive tumor cells. Put plainly: Confocal microscopy of peptide binding and internalization. The following applies: for internalization/accumulation in tumor cells by confocal microscopy: 75 μg/mL, co-incubation 15, 30 and 60 minutes. It counts as cell-based. Here is the method:
The binding of the TKD-sCy5, RAS70-sCy5, and NGL-RGD-sCy5 peptides to tumor cells was visualized using the Olympus FV3000 confocal system (Olympus, Japan). The C6, GL261, T98G, ANI, IBD, TMS cells (0.1×10^6 mL^-1 cells) were placed on Nunc™ Lab-Tek™ Chamber Slide System (Thermo Fisher Scientific, USA) and kept overnight. For primary GBM cells the chambers were pre-coated with Matrigel (0.2 mg/mL, Corning, New York, USA) to increase adhesion properties. The cells were incubated with peptides at a concentration of 75 μg/mL for 15, 30, and 60 minutes on ice in the dark. After the incubation cells were washed with PBS, fixed in a 10% formalin solution (Sigma-Aldrich, Burlington, USA), and mounted using a mounting medium containing DAPI (Ibidi, Graefelfing, Germany). Unstained cells were used as controls.
To study the mechanisms of peptide internalization, cells were incubated with peptides for 30 minutes in 37°C in a 5% CO2, washed with PBS, fixed in a 10% formalin solution (Sigma-Aldrich, USA), permeabilized with 0,1% Triton-X100 solution (Servicebio, Wuhan, China), blocked with 5% bovine serum albumin solution and incubated overnight with Alexa Fluor® 488 Anti-Rab5 antibody [EPR21801] (#ab270094, abcam, USA), and with Alexa Fluor® 488 Anti-LAMP1 antibody [EPR24395-31] (#281758, abcam, USA). After 24 hours cells were washed with 0,1% Tween-20 solution (Sigma-Aldrich, Burlington, USA) and mounted using a mounting medium containing DAPI (Ibidi, Graefelfing, Germany). To study the co-localization of the peptide with endolysosomal markers the raw confocal images (n = 10 for each group) were obtained in a 3-channel, 1024 × 1024 pixel format. Colocalization coefficient (τ-Kendall rank correlation value) was computed with the Coloc2 plugin and ImageJ 1.54g ([32]).
The next step was co-incubation of the target peptide RAS70 labeled with fluorescent dye Cy5 with tumor cells for 15, 30 and 60 minutes, followed by confocal microscopy analysis. […] To exclude processes of active internalization of the peptide, co-incubation of the cells on ice at +4°C was performed. […] Next, we evaluated the targeting properties of RAS70 on primary glioblastoma cells (ANI, IBD, TMS) obtained from neuro-oncological patients ([3]) that were additionally characterized for mHsp70, SOX2, NESTIN, GFAP, β3-Tubulin, Ki-67, and CD133 ( Figures 3A–I ).

Data set [4] has as its system U251 cells (lower chamber; HUVEC and astrocytes barrier).
Experimental: as §1, §2, §3

Take `CC(C)C[C@H](NC(=O)[C@H](CC(C)C)NC(=O)[C@H](CC(N)=O)NC(=O)[C@H](CC(N)=O)NC(=O)[C@H](CC(=O)O)NC(=O)[C@H](CCCCN)NC(=O)[C@@H](N)[C@@H](C)O)C(=O)NCC(=O)N[C@@H](CCCNC(=N)N)C(=O)N[C@@H](Cc1ccccc1)C(=O)N[C@@H](CCC(=O)O)C(=O)N[C@@H](CC(C)C)C(=O)N[C@@H](CO)C(=O)NCC(=O)NCCC(=O)N[C@@H](CCCNC(=N)N)C(=O)NCC(=O)N[C@@H](CC(=O)O)C(=O)O` [RAS70]: the “fluorescently labeled tumor cells in the lower chamber” value is given as 553 ± 61 cells in data set [1], 567 ± 72 cells in data set [2] and 603 ± 87 cells in data set [4]. The “presence in normal brain tissue of animals” value in the data set on GL261 glioma was “non-specific presence of the RAS70 in blood vessel but not in normal brain cells”. Besides, the “rank order of organ accumulation (biodistribution)” value in the data set on GL261 glioma (iv) was “kidney > liver > small intestine > lungs”. Besides, the “co-localization with early endosome (Rab5) and lysosome (LAMP-1) markers” value in data set [3] (30 minutes at 37°C, confocal microscopy) is recorded as “only partially penetrated the cell via the endolysosomal pathway”. The “internalization/accumulation in tumor cells by confocal microscopy” value in data set [3] (Cy5-labeled peptide) was “higher accumulation of the peptide was detected as compared to TKD or control”. The subcellular localization entry in data set [3] (Cy5-labeled peptide, confocal microscopy) is “predominantly localized in the cytoplasm of cells without penetrating into the nuclei”. Moreover, in data set [3] (co-incubation on ice at +4°C to exclude active internalization, data not shown), the “penetration into cells on ice” value is reported as “significant decrease in the penetration”.

Regarding `CC(C)C[C@H](NC(=O)[C@H](CC(C)C)NC(=O)[C@H](CC(N)=O)NC(=O)[C@H](CC(N)=O)NC(=O)[C@H](CC(=O)O)NC(=O)[C@H](CCCCN)NC(=O)[C@@H](N)[C@@H](C)O)C(=O)NCC(=O)N[C@@H](CCCNC(=N)N)C(=O)N[C@@H](Cc1ccccc1)C(=O)N[C@@H](CCC(=O)O)C(=O)N[C@@H](CC(C)C)C(=O)N[C@@H](CO)C(=O)NCC(=O)O` [TKD], the “internalization/accumulation in tumor cells by confocal microscopy” value in data set [3] (Cy5-labeled peptide) was “internalization of the TKD peptide by tumor cells was noted, reaching maximum absorption of the peptide after 60 minutes”.
